Tests used:
[1] = tested on: MDA-MB-231 human breast cancer xenografts; test: MDA-MB-231 xenografts: tumor growth, necrosis, hypoxia (Example 24); details: i.v. qdx5; Taxol® 10, Abraxane® 15, Doxorubicin 10 mg/kg/day
VEGF-A protein = VEGF-A protein in tumor extracts by ELISA
Experimental: All drugs and control saline were administered i.v. in a volume of 100 μl daily for 5 days. Mice were sacrificed, tumors were harvested and tumor cellular extracts were prepared. VEGF-A protein levels in tumor extracts were determined by ELISA.

[2] = tested on: MCF7-R (pgp+) multidrug resistant variant
Experimental: (§1) Its cytotoxicity was also assessed against the NCI-60 human tumor cell line panel.

[3] = tested on: NCI-60 human tumor cell line panel; test: NCI-60 human tumor cell line panel; format: cell-based; details: NCI 60 panel
Experimental: as §1

MCF7-S breast carcinoma = test: Cytotoxic activity in MCF7-S; format: cell-based, human
[4] = tested on: pulmonary metastasis of MDA-MB-435-Luc+; test: MDA-MB-435-Luc+ pulmonary metastasis; format: in vivo, ICR SCID mice; details: ABX 10 mg/kg two cycles; Avastin® 4 mg/kg
Experimental: Tumor metastasis was determined by measuring luciferase activity in tissue extracts derived from 10 axillary lymph nodes (“LN”) and both lobes of the lungs. Lymph nodes and lungs were excised, washed in PBS, and homogenized in 0.35 ml of cold CCLR buffer (Promega, Madison, Wis.) containing a protease inhibitor cocktail and PMSF (Sigma, Mo.). Cell debris was removed by centrifugation. Protein concentrations of cleared lysates were determined by Bradford assay (Bio-Rad, Hercules, Calif.). Fifty μl of Luciferase Assay Reagent (Promega, Madison, Wis.) was mixed with 10 μl of cleared lysate and a 10 second average of luminescence was detected using a single tube luminometer (Berthold, Germany). […] The net results were expressed as relative light units (“RLU”) normalized per mg of total lysate protein. […] Differences in lymph node and lung metastases were assessed for statistical significance by Fisher's exact test using GraphPad InStat (GraphPad Inc., San Diego, Calif.) or SPSS 14.0 (SPSS, Inc., Chicago, Ill.).

Abraxane®-treated cells [5] = test: In vitro clonogenic assay; format: cell-based
Experimental: Cells were treated with saline control, Abraxane® alone, VEGF-A alone, Avastin® alone, Abraxane®+VEGF-A or Abraxane®+Avastin®.

[6] = tested on: MDA-MB-231-Luc+ lymphatic and pulmonary metastases; test: Lymphatic and pulmonary metastasis of well-established 231-Luc+ tumors (Example 32); format: in vivo, nu/nu mice; details: Abraxane® 30 mg/kg qd×5; Avastin® 4 mg/kg q2×wkly; tumors ~460 mm^3
Experimental: MDA-MB-231 or 231-Luc^+ cells were implanted into the MFP of 4 to 6 week old female nu/nu mice (Harlan Sprague-Delaney, Indianapolis, Ind.) by standard methods. Briefly, mice were anesthetized and 100 μl of cell suspension containing 4×10^6 cells and 50% Matrigel (Sigma, Mo.) were injected into the MFP. Every 2-3 days, perpendicular tumor diameters were measured by digital caliper and used to calculate tumor volume according to the formula: Volume=Dd^2π/6, where D=larger diameter and d=smaller diameter. […] Animal care was in accordance with institutional guidelines.
Luciferase-expressing orthotopic MDA-MB-231 (231-Luc+) xenografts were grown to well-established tumors (˜460 mm^3) and randomized to four groups of N=5, 6 or 7.
Metastases of MDA-MB-231-Luc+ tumor cells were identified by measuring luciferase activity in tissue extracts from lymph nodes and lungs, as described in Example 31 above. […] This value was chosen because it represented the minimal signal which could be reproducibly detected above background in tissues in which metastases were independently confirmed by immunohistochemical detection of human cells. The net results were expressed as relative light units (RLU) normalized per mg of total lysate protein, and are presented in FIG. 17A (lymphatic metastasis) and FIG. 17B (pulmonary metastasis).

[7] = tested on: MDA-MB-231-Luc+ human breast cancer xenografts; test: MDA-MB-231-Luc+ xenografts, one or two cycles of Abraxane® with Avastin® (Example 29); format: in vivo, nude (nu/nu) mice; details: for % Complete Regression: day 65
Experimental: One or two cycles of Abraxane® were administered. In two-cycle Abraxane® treatment, a second cycle of Abraxane® (10 mg/kg, i.v. qd×5) was administered one week after conclusion of the first cycle.

[8] = tested on: lymph node metastasis of MDA-MB-435-Luc+; test: MDA-MB-435-Luc+ lymph node metastasis; format: in vivo, ICR SCID mice; details: ABX 10 mg/kg two cycles; Avastin® 4 mg/kg
Experimental: Two cycles of Abraxane® treatment were administered, each for 5 consecutive days with one week of rest between cycles. […] The control group received PBS injected i.v. or i.p. […] Lymph nodes and lungs were excised, washed in PBS, and homogenized in 0.35 ml of cold CCLR buffer (Promega, Madison, Wis.) containing a protease inhibitor cocktail and PMSF (Sigma, Mo.). Cell debris was removed by centrifugation. Protein concentrations of cleared lysates were determined by Bradford assay (Bio-Rad, Hercules, Calif.). […] CCLR buffer without tissue homogenates and lymph nodes or lungs of non-tumor bearing mice were assayed for background signal and subtracted from the results. The net results were expressed as relative light units (“RLU”) normalized per mg of total lysate protein. […] This value was chosen because it was the minimal signal reproducibly detected above background in metastatic tissues, independently confirmed by immunohistochemical detection (data not shown). Differences in lymph node and lung metastases were assessed for statistical significance by Fisher's exact test using GraphPad InStat (GraphPad Inc., San Diego, Calif.) or SPSS 14.0 (SPSS, Inc., Chicago, Ill.).

Abraxane®-treated cells [9] = test: In vitro cellular cytotoxicity assay with VEGF-A or Avastin®; format: cell-based; details: Abraxane® 1 to 24 nM
Experimental: Cells were treated with Abraxane® in a range of concentrations (1 to 24 nM).

[10] = tested on: Luciferase-expressing MDA-MB-231 human breast cancer xenografts; test: Luciferase-expressing MDA-MB-231 xenografts, tumor growth (Example 26); format: in vivo, nude (nu/nu) mice
Experimental: Abraxane®, either alone or in combination, was administered at 10 mg/kg/day daily for 5 days in two cycles separated by 1 week. […] Mice were monitored for tumor growth and drug toxicity. Mice were sacrificed when the mean tumor volume in the saline-treated control group reached 2000 mm^3.
Tumor growth inhibition (TGI) was calculated by comparing mean tumor volume of test groups to that of the control group at the last measurement of the control group.

MDA-MB-435-Luc+ tumors = test: MDA-MB-435-Luc+ tumor growth (Example 31); format: in vivo, ICR SCID mice
Experimental: MDA-MB-435-Luc+ (“435-Luc+”) cells were implanted subcutaneously into the mammary fat pad of 4 to 6 week old female ICR SCID mice (Taconic, Hudson, N.Y.). Every 2-3 days, perpendicular tumor diameters were measured by digital caliper and used to calculate tumor volume according to the formula: volume=Dd^2π/6, where D=larger diameter and d=smaller diameter. […] Animal care was in accordance with institutional guidelines.
Two cycles of Abraxane® treatment were administered, each for 5 consecutive days with one week of rest between cycles. […] To allow maximal development of metastatic foci, mice were sacrificed when the average tumor volume in the control group reached 2000 mm^3.

[11] = tested on: MDA-MB-435 human breast tumor xenografts; test: MDA-MB-435 human tumor xenografts treated with HKP, Abraxane® or both; format: in vivo, mice; details: nineteen weeks; HKP 250 ug i.v. weekly x16; Abraxane® 10 mg/kg/day i.v. x5 days
Experimental: Methods: MDA-MB-435 human tumor xenografts were established at an average tumor volume of 100 mm^3, mice were randomized into groups of 12-13 animals and treated with HKP, Abraxane®, or HKP and Abraxane®. HKP was delivered i.v. (250 ug), once a week, for 16 weeks. Abraxane® was administered i.v., daily for 5 days at 10 mg/kg/day only for the first week of treatment. The Abraxane® dose used was substantially below its MTD (30 mg/kg/day, qd×5) to prevent the tumor from complete regression so effect of HKP could be noted.

[12] = Experiment No. 1: one cycle, Avastin® 2 mg/kg
[13] = Experiment No. 2: two cycles, Avastin® 4 mg/kg

Molecule: COc1cccc2c1C(=O)c1c(O)c3c(c(O)c1C2=O)C[C@@](O)(C(=O)CO)C[C@@H]3O[C@H]1C[C@H](N)[C@H](O)[C@H](C)O1 [Doxorubicin]
- % TGI [1]: 45%
- Mean Tumor Volume [1]: 287 ± 56 mm^3
- VEGF-A (VEGF-A protein; tumor extracts, i.v. qdx5): 754 ± 49 pg/mg protein
- increase in VEGF-A protein levels (VEGF-A protein; vs saline control): 124%

Molecule: COc1cc2c(c(OC)c1OC)-c1ccc(SC)c(=O)cc1[C@@H](NC(=O)CCNC(=O)N[C@H]1CCc3cc(OC)c(OC)c(OC)c3-c3ccc(SC)c(=O)cc31)CC2 [IDN5404]
- fold resistance MCF7-R vs MCF7-S [2]: > 10 fold
- IC50 ([2]; MCF7-R): 40 ± 3.8 nM
- IC50 [3]: < 10 nM
- IC50 (MCF7-S breast carcinoma): 1.7 ± 0.1 nM

Molecule: Avastin®: anti-VEGF antibody bevacizumab
- Pulmonary metastasis % Inhibition vs. Control [4]: 50%
- number of colonies formed (Abraxane®-treated cells [5]): slight reduction in the number of colonies formed
- lymphatic and pulmonary metastases [6]: failed to prevent metastasis
- Mean Tumor Volume ([7]; Experiment No. 1: one cycle of Abraxane® 10 mg/kg, Avastin® 2 mg/kg): 953 ± 127 mm^3
- % TGI [7, 12]: 54.16%
- % Complete Regression [7, 12]: 0%
- % TGD ([7]; Experiment No. 1: one cycle, Avastin® 2 mg/kg, time to 1000 mm^3 vs control): 13%
- Mean Tumor Volume ([7]; Experiment No. 2: two cycles of Abraxane® 10 mg/kg, Avastin® 4 mg/kg): 2089 ± 251 mm^3
- % TGD [7, 13]: 7%
- % TGI [7, 13]: 12.56%
- % Complete Regression [7, 13]: 0%
- Lymph node metastasis % Inhibition vs. Control [8]: 100%
- effect of addition on in vitro cytotoxicity of Abraxane® (Abraxane®-treated cells [9]): increased the in vitro cytotoxicity of Abraxane®
- % TGI ([10]; Abraxane® 10 mg/kg/day two cycles, Avastin® 4 mg/kg): 12.56%
- Mean Tumor Volume ([10]; Abraxane® 10 mg/kg/day x5 days, two cycles, Avastin® 4 mg/kg twice a week for 6 weeks): 2089 ± 251 mm^3
- % Complete Regression ([10]; day 65, Abraxane® two cycles, Avastin® 4 mg/kg): 0%
- % Complete Regressions (MDA-MB-435-Luc+ tumors; 92 days): 0%
- tumor volume (MDA-MB-435-Luc+ tumors; ABX 10 mg/kg i.v. qd×5 two cycles, Avastin® 4 mg/kg i.p. twice a week): 792 mm^3
- % TGI (MDA-MB-435-Luc+ tumors; ABX 10 mg/kg two cycles, Avastin® 4 mg/kg): 60.79%

Molecule: CNGRC-GG-d(KLAKLAK)2 [HKP]
- tumor volume [11]: 4,372 mm^3

Source: patent US9561288B2, “Combinations and modes of administration of therapeutic agents and combination therapy” (Abraxis BioScience, LLC, priority 2005, dated 2017)
